Laboratory results: patent US8592629B2, “Sulfonamide derivatives as Nav 1.7 inhibitors” (Pfizer Limited, priority 2010, dated 2013)

Each compound was assayed against T1, Nav1.7 (or SCN9A) channel (Homo sapiens, UniProt Q15858) (assay: Nav1.7 (hSCN9A) block in HEK cells, PatchXpress 7000 automated electrophysiology, estimated IC50 (EIC50)). Conditions: PatchXpress assay; HEK cells stably transfected with hSCN9A, voltage-clamped at V1/2 of inactivation.
T1 construct: expressed in transfected cells
T1 sequence (Q15858 whole entry): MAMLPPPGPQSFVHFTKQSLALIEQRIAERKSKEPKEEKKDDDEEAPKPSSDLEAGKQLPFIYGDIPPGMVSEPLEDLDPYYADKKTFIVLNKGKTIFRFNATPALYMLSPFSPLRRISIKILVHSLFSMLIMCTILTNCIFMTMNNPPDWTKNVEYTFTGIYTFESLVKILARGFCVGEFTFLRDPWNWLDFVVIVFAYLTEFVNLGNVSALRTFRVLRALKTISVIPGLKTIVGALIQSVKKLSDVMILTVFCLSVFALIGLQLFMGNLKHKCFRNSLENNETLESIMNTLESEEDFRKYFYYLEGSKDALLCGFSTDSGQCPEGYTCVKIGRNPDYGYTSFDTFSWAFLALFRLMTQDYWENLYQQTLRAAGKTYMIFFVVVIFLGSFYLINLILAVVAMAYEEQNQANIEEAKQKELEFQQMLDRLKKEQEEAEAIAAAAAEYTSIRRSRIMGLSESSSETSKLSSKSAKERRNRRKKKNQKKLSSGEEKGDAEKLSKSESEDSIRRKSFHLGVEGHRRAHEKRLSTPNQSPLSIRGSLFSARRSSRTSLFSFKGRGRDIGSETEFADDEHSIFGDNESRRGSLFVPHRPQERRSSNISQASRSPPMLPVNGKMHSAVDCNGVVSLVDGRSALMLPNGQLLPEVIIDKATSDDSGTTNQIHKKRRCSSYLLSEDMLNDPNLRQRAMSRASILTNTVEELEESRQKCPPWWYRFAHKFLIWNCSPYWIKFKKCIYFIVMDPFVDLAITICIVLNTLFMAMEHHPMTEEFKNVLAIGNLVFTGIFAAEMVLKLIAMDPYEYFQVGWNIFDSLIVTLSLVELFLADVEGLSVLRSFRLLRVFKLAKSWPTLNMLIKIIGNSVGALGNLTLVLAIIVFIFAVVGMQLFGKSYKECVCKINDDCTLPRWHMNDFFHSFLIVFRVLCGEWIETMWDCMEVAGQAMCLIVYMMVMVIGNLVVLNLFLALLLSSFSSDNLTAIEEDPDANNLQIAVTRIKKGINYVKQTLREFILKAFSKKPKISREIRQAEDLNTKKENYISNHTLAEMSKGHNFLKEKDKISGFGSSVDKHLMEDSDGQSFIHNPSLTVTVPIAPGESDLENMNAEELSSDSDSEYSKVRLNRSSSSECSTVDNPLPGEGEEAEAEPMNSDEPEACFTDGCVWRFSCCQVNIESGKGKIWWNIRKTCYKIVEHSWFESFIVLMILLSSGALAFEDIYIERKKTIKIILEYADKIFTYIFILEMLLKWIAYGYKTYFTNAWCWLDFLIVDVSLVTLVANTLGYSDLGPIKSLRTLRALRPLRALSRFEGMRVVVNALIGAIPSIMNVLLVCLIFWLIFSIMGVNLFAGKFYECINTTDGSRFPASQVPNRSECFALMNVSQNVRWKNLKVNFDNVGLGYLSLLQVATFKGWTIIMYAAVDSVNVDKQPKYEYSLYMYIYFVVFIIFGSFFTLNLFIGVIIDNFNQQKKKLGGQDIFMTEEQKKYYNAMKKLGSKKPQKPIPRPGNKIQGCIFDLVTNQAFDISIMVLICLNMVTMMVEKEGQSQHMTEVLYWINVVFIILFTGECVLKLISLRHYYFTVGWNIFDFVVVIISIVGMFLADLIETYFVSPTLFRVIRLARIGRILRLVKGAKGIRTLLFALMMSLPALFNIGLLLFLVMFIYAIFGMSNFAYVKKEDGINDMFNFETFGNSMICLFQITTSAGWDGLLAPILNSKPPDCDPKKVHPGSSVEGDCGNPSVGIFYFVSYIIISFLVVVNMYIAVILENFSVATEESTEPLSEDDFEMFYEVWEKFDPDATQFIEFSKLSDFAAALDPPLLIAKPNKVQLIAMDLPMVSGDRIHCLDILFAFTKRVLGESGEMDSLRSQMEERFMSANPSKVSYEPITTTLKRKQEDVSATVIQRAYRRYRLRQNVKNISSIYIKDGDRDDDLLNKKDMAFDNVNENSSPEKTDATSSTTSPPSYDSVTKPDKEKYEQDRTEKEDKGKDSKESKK
Type: cell-based
Procedure: The ability of the compounds of formula (I) to block the Nav1.7 (or SCN9A) channel were measured using the assay described below.
Human Embryonic Kidney (HEK) cells were transfected with an hSCN9A construct using lipofectamine reagent (Invitrogen), using standard techniques. Cells stably expressing the hSCN9A constructs were identified by their resistance to G-418 (400 μg/ml). Clones were screened for expression using the whole-cell voltage-clamp technique.
HEK cells stably transfected with hSCN9A were maintained in DMEM medium supplemented with 10% heat-inactivated fetal bovine serum and 400 μg/ml G-418 in an incubator at 37° C. with a humidified atmosphere of 10% CO2. For HTS, cells were harvested from flasks by trypsinization and replated in an appropriate multi-well plate (typically 96 or 384 wells/plate) such that confluence would be achieved within 24 hours of plating. For electrophysiological studies, cells were removed from the culture flask by brief trypsinization and re-plated at low density onto glass cover slips. Cells were typically used for electrophysiological experiments within 24 to 72 hours after plating.
HEK cells stably transfected with hSCN9A were viewed under Hoffman contrast optics and placed in front of an array of flow pipes emitting either control or compound-containing extracellular solutions. All compounds were dissolved in dimethyl sulfoxide to make 10 mM stock solutions, which were then diluted into extracellular solution to attain the final concentrations desired. […] The voltage-dependence of inactivation was determined by applying a series of depolarizing prepulses (8 sec long in 10 mV increments) from a negative holding potential. The voltage was then immediately stepped to 0 mV to assess the magnitude of the sodium current. Currents elicited at 0 mV were plotted as a function of prepulse potential to allow estimation of the voltage at which 50% of the channels were inactivated (midpoint of inactivation or V1/2). Compounds were tested for their ability to inhibit hSCN9A sodium channels by activating the channel with a 20 msec voltage step to 0 mV following an 8 second conditioning prepulse to the empirically determined V1/2. Compound effect (% inhibition) was determined by difference in current amplitude before and after application of test compounds. For ease of comparison, “estimated IC-50” (EIC50) values were calculated from single point electrophysiology data by the following equation, (tested concentration, uM) X (100-% inhibition/% inhibition). Inhibition values <20% and >80% were excluded from the calculation.
Electrophysiological assays were conducted with PatchXpress 7000 hardware and associated software (Molecular Devices Corp). All assay buffers and solutions were identical to those used in conventional whole-cell voltage clamp experiments described above. hSCN9A cells were grown as above to 50%-80% confluency and harvested by trypsinization. Trypsinized cells were washed and resuspended in extracellular buffer at a concentration of 1×10^6 cells/ml. The onboard liquid handling facility of the PatchXpress was used for dispensing cells and application of test compounds. Determination of the voltage midpoint of inactivation was as described for conventional whole-cell recordings. Cells were then voltage-clamped to the empirically determined V1/2 and current was activated by a 20 msec voltage step to 0 mV.
Compounds of the Examples were tested in the assays described above and found to have the Nav1.7 EIC50 (μM) values specified in the table below. All data are derived from the PatchXpress assay unless explicitly stated otherwise.

IC50	SMILES
9900 nM	CN1CCC(Oc2ncc(Oc3cc(F)c(C(=O)NS(C)(=O)=O)cc3F)cc2Cl)CC1 [Example 67, 4-({5-chloro-6-[(1-methylpiperidin-4-yl)oxy]pyridin-3-yl}oxy)-2,5-difluoro-N-(methylsulfonyl)benzamide]
1800 nM	CS(=O)(=O)NC(=O)c1cc(F)c(Oc2cnc(C(F)(F)F)c(Cl)c2)cc1F [Example 68, 4-{[5-chloro-6-(trifluoromethyl)pyridin-3-yl]oxy}-2,5-difluoro-N-(methylsulfonyl)benzamide]
250 nM	COc1cc(C(=O)NS(C)(=O)=O)ccc1Oc1cnc(OC(C)C)c(Cl)c1 [Example 69, 4-[(5-chloro-6-isopropoxypyridin-3-yl)oxy]-3-methoxy-N-(methylsulfonyl)benzamide]
1700 nM	CC(C)Oc1ncc(Oc2cc(F)c(C(=O)NS(C)(=O)=O)cc2F)cc1F [Example 71, 2,5-difluoro-4-[(5-fluoro-6-isopropoxypyridin-3-yl)oxy]-N-(methylsulfonyl)benzamide]
> 1000 nM	COc1c(F)c(Oc2cnc(OC(C)C)c(Cl)c2)cc(F)c1C(=O)NS(C)(=O)=O [Example 72, 4-[(5-chloro-6-isopropoxypyridin-3-yl)oxy]-3,6-difluoro-2-methoxy-N-(methylsulfonyl)benzamide]
620 nM	CC(C)Oc1ncc(Oc2ccc(C(=O)NS(C)(=O)=O)cc2C#N)cc1Cl [Example 73, 4-[(5-chloro-6-isopropoxypyridin-3-yl)oxy]-3-cyano-N-(methylsulfonyl)benzamide]
9.4 nM	CC(C)(Oc1ncc(Oc2cc(F)c(C(=O)NS(C)(=O)=O)cc2Cl)cc1Cl)C(F)(F)F [Example 76, 5-chloro-4-{[5-chloro-6-(2,2,2-trifluoro-1,1-dimethylethoxy)pyridin-3-yl]oxy}-2-fluoro-N-(methylsulfonyl)benzamide]
15 nM	CS(=O)(=O)NC(=O)c1cc(Cl)c(Oc2cnc(OC(C(F)(F)F)C(F)(F)F)c(Cl)c2)cc1F [Example 77, 5-chloro-4-({5-chloro-6-[2,2,2-trifluoro-1-(trifluoromethyl)ethoxy]pyridin-3-yl}oxy)-2-fluoro-N-(methylsulfonyl)benzamide]
150 nM	CC(C)Nc1ncc(Oc2cc(F)c(C(=O)NS(C)(=O)=O)cc2F)cc1Cl [Example 79, 4-{[5-chloro-6-(isopropylamino)pyridin-3-yl]oxy}-2,5-difluoro-N-(methylsulfonyl)benzamide]
1500 nM	CS(=O)(=O)NC(=O)c1cc(F)c(Oc2cnc(OC(CF)CF)c(Cl)c2)cc1F [Example 80, 4-({5-chloro-6-[2-fluoro-1-(fluoromethyl)ethoxy]pyridin-3-yl}oxy)-2,5-difluoro-N-(methylsulfonyl)benzamide]
42 nM	CC(C)Oc1ncc(Oc2ccc(C(=O)NS(C)(=O)=O)cc2Cl)cc1Cl [Example 82, 3-chloro-4-[(5-chloro-6-isopropoxypyridin-3-yl)oxy]-N-(methylsulfonyl)benzamide]
> 10000 nM	COc1ncc(Oc2ccc(C(=O)NS(C)(=O)=O)cc2Cl)cc1Cl [Example 83, 3-chloro-4-[(5-chloro-6-methoxypyridin-3-yl)oxy]-N-(methylsulfonyl)benzamide]
850 nM	CC(C)Oc1ncc(Oc2ccc(C(=O)NS(C)(=O)=O)cc2)cc1Cl [Example 84, 4-[(5-chloro-6-isopropoxypyridin-3-yl)oxy]-N-(methylsulfonyl)benzamide]
> 10000 nM	COc1ncc(Oc2ccc(C(=O)NS(C)(=O)=O)cc2)cc1Cl [Example 85, 4-[(5-chloro-6-methoxypyridin-3-yl)oxy]-N-(methylsulfonyl)benzamide]
7200 nM	COc1cc(Oc2cnc(OC(C)C)c(Cl)c2)ccc1C(=O)NS(C)(=O)=O [Example 86, 4-[(5-chloro-6-isopropoxypyridin-3-yl)oxy]-2-methoxy-N-(methylsulfonyl)benzamide]
> 3000 nM	CS(=O)(=O)NC(=O)c1cc(F)c(Oc2ccc(Cl)c3cccnc23)cc1F [Example 87, 4-[(5-chloroquinolin-8-yl)oxy]-2,5-difluoro-N-(methylsulfonyl)benzamide]
> 3000 nM	CS(=O)(=O)NC(=O)c1cc(F)c(Oc2cc(Cl)cc3cccnc23)cc1F [Example 88, 4-[(6-chloroquinolin-8-yl)oxy]-2,5-difluoro-N-(methylsulfonyl)benzamide]
> 3000 nM	COc1ccncc1Oc1cc(F)c(C(=O)NS(C)(=O)=O)cc1F [Example 89, 2,5-difluoro-4-(4-methoxypyridin-3-yloxy)-N-(methylsulfonyl)benzamide]
> 3000 nM	CS(=O)(=O)NC(=O)c1cc(F)c(Oc2cccn3ccnc23)cc1F [Example 90, 2,5-difluoro-4-(imidazo[1,2-a]pyridin-8-yloxy)-N-(methylsulfonyl)benzamide]
680 nM	CS(=O)(=O)NC(=O)c1cc(Cl)c(Oc2cnc(C3CC3)c(Cl)c2)cc1Cl [Example 91, 2,5-Dichloro-4-(5-chloro-6-cyclopropylpyridin-3-yloxy)-N-(methylsulfonyl)benzamide]
50 nM	O=C(NS(=O)(=O)C1CC1)c1cc(Cl)c(Oc2cnc(C3CC3)c(Cl)c2)cc1F [Example 92, 5-chloro-4-(5-chloro-6-cyclopropylpyridin-3-yloxy)-N-(cyclopropylsulfonyl)-2-fluorobenzamide]
470 nM	CS(=O)(=O)NC(=O)c1cc(Cl)c(Cc2cnc(C3CC3)c(Cl)c2)cc1F [Example 93, 5-chloro-4-((5-chloro-6-cyclopropylpyridin-3-yl)methyl)-2-fluoro-N-(methylsulfonyl)benzamide]
830 nM	CC(C)Oc1ncc(Sc2cc(F)c(C(=O)NS(C)(=O)=O)cc2Cl)cc1Cl [Example 94, 5-chloro-4-[(5-chloro-6-isopropoxypyridin-3-yl)thio]-2-fluoro-N-(methylsulfonyl)benzamide]
37 nM	CS(=O)(=O)NC(=O)c1cc(Cl)c(Oc2cnc(N3CCC(F)(F)C3)c(Cl)c2)cc1F [Example 95, 5-chloro-4-(5-chloro-6-(3,3-difluoropyrrolidin-1-yl)pyridin-3-yloxy)-2-fluoro-N-(methylsulfonyl)benzamide]
73 nM	CS(=O)(=O)NC(=O)c1cc(Cl)c(Oc2cnc(N3CC(F)(F)C3)c(Cl)c2)cc1F [Example 96, 5-Chloro-4-(5-chloro-6-(3,3-difluoroazetidin-1-yl)pyridin-3-yloxy)-2-fluoro-N-(methylsulfonyl)benzamide]
12 nM	C[C@H](Oc1ncc(Oc2cc(F)c(C(=O)NS(C)(=O)=O)cc2Cl)cc1Cl)C(F)(F)F [Example 98, 5-chloro-4-({5-chloro-6-[(1S)-2,2,2-trifluoro-1-methylethoxy]pyridin-3-yl}oxy)-2-fluoro-N-(methylsulfonyl)benzamide]
15 nM	C[C@@H](Oc1ncc(Oc2cc(F)c(C(=O)NS(C)(=O)=O)cc2Cl)cc1Cl)C(F)(F)F [Example 99, 5-chloro-4-({5-chloro-6-[(1R)-2,2,2-trifluoro-1-methylethoxy]pyridin-3-yl}oxy)-2-fluoro-N-(methylsulfonyl)benzamide]
72 nM	CS(=O)(=O)NC(=O)c1cc(Cl)c(Oc2cnc(Oc3ccccc3)c(Cl)c2)cc1F [Example 100, 5-chloro-4-[(5-chloro-6-phenoxypyridin-3-yl)oxy]-2-fluoro-N-(methylsulfonyl)benzamide]
400 nM	CS(=O)(=O)NC(=O)c1ccc(Nc2cnc(OC(C(F)(F)F)C(F)(F)F)c(Cl)c2)cc1 [Example 103, 4-(5-chloro-6-(1,1,1,3,3,3-hexafluoropropan-2-yloxy)Pyridin-3-ylamino)-N-(methylsulfonyl)benzamide]

SMILES	IC50
CC(C)COc1ncc(Oc2ccc(C(=O)NS(C)(=O)=O)c(F)c2)cc1Cl [Example 74, 4-[(5-chloro-6-isobutoxypyridin-3-yl)oxy]-2-fluoro-N-(methylsulfonyl)benzamide]	50 nM
CC(C)(C)Oc1ncc(Oc2cc(F)c(C(=O)NS(C)(=O)=O)cc2Cl)cc1Cl [Example 101, 4-[(6-tert-butoxy-5-chloropyridin-3-yl)oxy]-5-chloro-2-fluoro-N-(methylsulfonyl)benzamide]	34 nM
